Assay results as given in US20050054006A1, “Combinatorial fluorescent library based on the styryl scaffold” (New York University, priority 2003, published 2005).
“Also recorded” adds a separate entry of the source.

How the values were obtained:
[1] = test system: dsDNA (double stranded DNA); assay: Fluorescence change of the dye upon addition of DNA (fluorometric titration); format: binding
Protocol: (§1) With these compounds(FIG. 2), we observed the fluorescence intensity change upon addition of DNA. […] With a series of concentrations of dsDNA (double stranded DNA) added to compound 1, a linear increase in the fluorescence intensities was observed (FIG. 3). At the highest concentration of DNA tested (50 μg/mL), the increase in fluorescence emission reached up to 13.3 times higher than that of the free compound (FIG. 4). A blue shift of 17 nm in the emission wavelength upon DNA addition was observed, without a significant excitation wavelength shift. The structure of compound 1 includes a 2,4,5-trimethoxy group from the benzaldehyde moiety and a unique adamantyl pyridinium functionality.
Different trimethoxy isomers, 2 (3,4,5-trimethoxy) and 3 (2,3,4-trimethoxy) were synthesized to compare the positional effects of the methoxy groups in compound 1 (FIG. 2). While the responses of compound 2 and 3 to DNA treatment were simliar to that of compound 1, the fluorescence emission increase was much smaller in compound 2 (4.3 fold) and compound 3 (1.5 fold).

[2] = Spectrophotometric properties of the free styryl dyes; format: physicochemical
Protocol: as §1

[3] = test system: UACC-62 human melanoma cells; assay: Organelle localization in live cells by fluorescence microscopy; conditions: live UACC-62 cells; for LOCALIZATION: fluorescence microscope λex=405, 490, 570 nm, λem>510 nm
[4] = Fluorescence excitation/emission of the styryl dye library compounds; format: physicochemical

Compound	EM(nm) ([4]; EX/EM peak no. 1)	EX(nm) ([4]; EX/EM peak no. 1)	LOCALIZATION [3]	also measured
COc1cc(OC)c(OC)cc1C=Cc1cc[n+](C23CC4CC(CC(C4)C2)C3)cc1.[Br-] [Compound 1]				blue shift in the emission wavelength upon DNA addition [1]: 17 nm; fluorescence intensity change upon addition of DNA [1]: strong fluorescence increase; increase in fluorescence emission versus free compound ([1]; highest DNA concentration tested, 50 μg/mL): 13.3 times; φF DNA ([1]; quantum yield, with DNA): 0.0032; φF DNA/φF free ([1]; ratio of quantum yields with DNA and free): 13.3; λem DNA (nm) ([1]; with DNA): 566 nm; emission wavelength [2]: 583 nm; excitation wavelength [2]: 413 nm; λem free (nm) ([2]; free dye): 583 nm; λmax (nm) ([2]; free dye): 413 nm; linear fluorescence response range ([2]; in PBS, without self-quenching or wavelength shifts): 0.05 to 100 µM; φF free ([2]; quantum yield, free dye): 0.00024; nuclear localization / staining in live cells ([3]; compounds 1, 2, 3 at the same concentration): more selective staining of the nucleus of live cells
O=[N+]([O-])c1ccccc1C=CC=Cc1cc[n+](C23CC4CC(CC(C4)C2)C3)cc1.[Br-] [Compound B36]	520	420 nm	MITO	
C[n+]1ccc(C=Cc2cccc3ccccc23)cc1.[I-] [Compound A32]	510	400 nm	MITO and CYTO and VESICLE	
C[n+]1c(C=Cc2ccc3c(c2)Cc2ccccc2-3)ccc2ccccc21.[I-] [Compound H28]	660	350-500 nm	NUCLEI	
C[n+]1c(C=Cc2ccccc2Br)ccc2ccccc21.[I-] [Compound H3]	640	530 nm	MITO	
C[n+]1c(C=Cc2ccc(-c3ccccc3)cc2)ccc2ccccc21.[I-] [Compound H17]	650	430 nm	VESICLE; also recorded: NUCLEOLI	EM(nm) ([4]; EX/EM peak no. 2): 540 nm; EX(nm) ([4]; EX/EM peak no. 2): 420 nm
C[n+]1ccc(/C=C/c2cccc([N+](=O)[O-])c2)c2ccccc21.[I-] [Compound G21]	670	450-550 nm	MITO	
C[n+]1ccc(/C=C/c2c[nH]c3ccccc23)c2ccccc21.[I-] [Compound G24]	610	490 nm	MITO	
COc1ccc2c(ccc(C=Cc3cc(OC)c(OC)cc3OC)[n+]2C)c1.[I-] [Compound I38]	620	390 nm	CYTO	
Cc1ccnc(-c2cc(C=Cc3ccc4ccccc4c3)cc[n+]2C)c1.[I-] [Compound J33]	520	320-450 nm	MITO	
COc1ccc(C=Cc2ccc3ccccc3[n+]2C)cc1.[I-] [Compound H10]	650	530 nm	MITO	
C[n+]1c(C=Cc2ccc(O)cc2)ccc2ccccc21.[I-] [Compound H16]	630	450 nm	NUCLEOLI	
